# From patent US20120071475A1, “UREA DERIVATIVES HAVING PI3K-INHIBITING ACTIVITY” (SHIONOGI & CO., LTD., priority 2009, published 2012)
# Columns and labels:
# CYP3A4 = molecular target: T1, CYP3A4 (Homo sapiens, UniProt P08684); assay: CYP3A4 fluorescence MBI test; type: in vitro ADME; settings: difference in IC50 with 0 or 30 minutes pre-reaction; CYP3A4 expressed in E. coli, substrate 7-BFC
# T1 construct: host or cells: E. coli
# In short: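 E. coli-expressed CYP3A4 debenzylating 5.6 μmol/L 7-BFC to fluorescent 7-HFC (Ex 420/Em 535 nm) in K-Pi pH 7.4 at 25° C, 15 min reaction. NADPH pre-incubation of 0 or 30 min, with 10-fold dilution before reaction. IC50 from 0.625–20 μmol/L (6 points); (+) for an IC50 shift ≥5 μmol/L, (−) for ≤3 μmol/L.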
# [1] = BA test (oral absorbability, bioavailability); type: in vivo
# Description: An experimental material and a method for examining oral absorbability
# (1) Animals used: rats or mice were used. (2) Breeding condition: chow and sterilized tap water were allowed to be taken in freely. (3) Setting of a dosage and grouping: a predetermined dosage was administered orally or intravenously. Groups were formed as shown below. (A dosage varied depending on each compound)
# Oral administration 1-30 mg/kg (n=2 to 3)
# Intravenous administration 0.5-10 mg/kg (n=2 to 3)
# (4) Preparation of administered liquid: In oral administration, a solution or suspension was administered. In intravenous administration, after solubilization, the administration was performed. (5) Method of Administration: In oral administration, compulsory administration to the stomach was conducted using an oral probe. In intravenous administration, administration from the caudal vein was conducted using a syringe with an injection needle. (6) Evaluation item: Blood was chronologically collected, and then the drug concentration in blood plasma was measured using a LC/MS/MS. (7) Statistical analysis: With regard to a shift in plasma concentration, the plasma concentration-time area under the curve (AUC) was calculated using a nonlinear least-squares program WinNonlin®. Bioavailability (BA) was calculated from the AUCs of the oral administration group and the intravenous administration group, respectively.
# PI3Kγ = PI3Kγ (Homo sapiens, UniProt P48736); assay: PI3Kγ inhibitory activity (PI3-kinase HTRF assay, inhibition ratio); type: biochemical; settings: 0.5 h, compound at 10 μmol/L; read-out: PI3Kg Inhibition Ratio % (10 μM)
# In short: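 Compound at 10 μmol/L preincubated 10 min with PI3Kγ and PIP2 substrate, then reacted with ATP for 30 minutes at room temperature; the compound, substrate and ATP figures as printed (40 μmol/L each) are solution concentrations. HTRF 665/620 nm ratio read after 18 hours. Inhibition ratio calculated against no-compound (100%) and no-enzyme (0%) controls.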
# AKT phosphorylation = AKT phosphorylation inhibitory activity in MCP-1 stimulated THP-1 cells (sandwich ELISA); type: cell-based, Human; settings: Homo sapiens, compound at 1 μmol/L, MCP-1 stimulation, read-out: AKT phosphorylation inhibition ratio
# In short: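 THP-1 cells (6.7×10^6/mL in HBSS) were preincubated with compound at 1 μmol/L for 5 min at 37 °C, then stimulated for 60 s with HBSS containing 1.2 μg/mL MCP-1 and lysed. Phospho-Akt Ser473/AKT1 sandwich ELISA was read at A450. % inhibition: no compound = 100% activity, no MCP-1 = 0%.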
# [2] = Metabolic stability test (pooled human liver microsome); type: in vitro ADME; settings: percentage of test compound remained after 30 minutes, pooled human liver microsome 0.5 mg protein/mL, 1 mmol/L NADPH, 37° C., compound 0.5 μM
# In short: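 Pooled human liver microsomes (0.5 mg protein/mL) incubated with compound and 1 mmol/L NADPH at 37° C. in pH 7.4 Tris buffer for 0 or 30 min. Parent quantified by LC/MS/MS after methanol/acetonitrile quench; value is % remaining at 30 min versus 0 min.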
# [3] = molecular target: T2, human ether-a-go-go related gene (hERG) channel (Homo sapiens, UniProt Q12809); assay: hERG test (whole-cell patch-clamp, IKr in HEK293 cells); type: cell-based; settings: inhibition of maximum tail current (IKr), HEK293 cell expressing hERG, compound 1 μM, 10 minutes; 1 µM
# T2 construct: expressed in transfected cells; host or cells: HEK293
# In short: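 hERG-expressing HEK293 cells, automated whole-cell patch clamp: hold −80 mV, +50 mV for 2 s, then −50 mV for 2 s to record IKr tail current. Compound in extracellular solution (pH 7.4) for 10 min at room temperature; inhibition of maximum tail current calculated versus pre-application and compared with 0.1% DMSO vehicle.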
# T2 sequence (Q12809 whole entry): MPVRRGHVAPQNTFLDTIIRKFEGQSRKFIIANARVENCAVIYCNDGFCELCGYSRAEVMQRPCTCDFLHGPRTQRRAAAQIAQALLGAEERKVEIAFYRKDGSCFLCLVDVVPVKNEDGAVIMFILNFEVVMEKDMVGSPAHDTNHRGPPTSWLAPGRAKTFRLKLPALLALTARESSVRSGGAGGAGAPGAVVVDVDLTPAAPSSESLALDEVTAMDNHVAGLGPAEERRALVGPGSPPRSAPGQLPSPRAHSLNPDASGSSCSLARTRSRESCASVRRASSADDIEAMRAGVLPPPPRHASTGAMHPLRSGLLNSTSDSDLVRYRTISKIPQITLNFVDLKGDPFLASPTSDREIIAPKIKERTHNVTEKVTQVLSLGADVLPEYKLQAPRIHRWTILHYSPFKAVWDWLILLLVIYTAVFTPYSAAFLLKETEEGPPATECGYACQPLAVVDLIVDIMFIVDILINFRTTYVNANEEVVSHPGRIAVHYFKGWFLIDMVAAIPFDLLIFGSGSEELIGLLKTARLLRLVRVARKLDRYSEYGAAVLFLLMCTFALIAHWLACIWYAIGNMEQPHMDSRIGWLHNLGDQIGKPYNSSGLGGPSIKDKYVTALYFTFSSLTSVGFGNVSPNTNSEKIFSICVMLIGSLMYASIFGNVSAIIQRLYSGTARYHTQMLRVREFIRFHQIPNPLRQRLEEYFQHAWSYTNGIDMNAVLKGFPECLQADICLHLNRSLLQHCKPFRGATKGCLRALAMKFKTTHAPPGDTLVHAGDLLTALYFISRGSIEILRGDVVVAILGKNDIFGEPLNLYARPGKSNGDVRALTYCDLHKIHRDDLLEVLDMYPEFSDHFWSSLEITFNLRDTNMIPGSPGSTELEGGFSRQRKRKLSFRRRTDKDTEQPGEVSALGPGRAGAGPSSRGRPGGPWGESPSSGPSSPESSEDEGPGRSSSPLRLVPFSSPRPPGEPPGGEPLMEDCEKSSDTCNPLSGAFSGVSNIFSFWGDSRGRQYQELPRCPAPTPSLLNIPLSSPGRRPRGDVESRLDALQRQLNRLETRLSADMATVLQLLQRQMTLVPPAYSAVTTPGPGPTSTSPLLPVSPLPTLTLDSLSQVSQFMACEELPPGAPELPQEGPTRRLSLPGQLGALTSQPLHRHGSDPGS
# T1 sequence (P08684 whole entry): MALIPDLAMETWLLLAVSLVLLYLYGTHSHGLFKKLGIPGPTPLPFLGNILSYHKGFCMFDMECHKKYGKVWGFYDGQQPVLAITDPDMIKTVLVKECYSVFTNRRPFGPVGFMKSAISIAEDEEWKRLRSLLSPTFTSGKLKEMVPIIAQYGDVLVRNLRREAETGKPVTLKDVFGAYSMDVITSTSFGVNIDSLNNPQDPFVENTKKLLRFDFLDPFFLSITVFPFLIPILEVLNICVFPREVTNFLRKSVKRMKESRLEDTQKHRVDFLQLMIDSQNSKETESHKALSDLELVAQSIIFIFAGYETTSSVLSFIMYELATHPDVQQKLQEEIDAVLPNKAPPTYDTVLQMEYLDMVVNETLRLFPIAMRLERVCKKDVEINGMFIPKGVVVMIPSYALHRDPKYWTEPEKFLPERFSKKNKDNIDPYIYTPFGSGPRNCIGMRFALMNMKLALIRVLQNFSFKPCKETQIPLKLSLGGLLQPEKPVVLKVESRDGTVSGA
# Sequence of PI3Kγ (P48736 whole entry, species assumed): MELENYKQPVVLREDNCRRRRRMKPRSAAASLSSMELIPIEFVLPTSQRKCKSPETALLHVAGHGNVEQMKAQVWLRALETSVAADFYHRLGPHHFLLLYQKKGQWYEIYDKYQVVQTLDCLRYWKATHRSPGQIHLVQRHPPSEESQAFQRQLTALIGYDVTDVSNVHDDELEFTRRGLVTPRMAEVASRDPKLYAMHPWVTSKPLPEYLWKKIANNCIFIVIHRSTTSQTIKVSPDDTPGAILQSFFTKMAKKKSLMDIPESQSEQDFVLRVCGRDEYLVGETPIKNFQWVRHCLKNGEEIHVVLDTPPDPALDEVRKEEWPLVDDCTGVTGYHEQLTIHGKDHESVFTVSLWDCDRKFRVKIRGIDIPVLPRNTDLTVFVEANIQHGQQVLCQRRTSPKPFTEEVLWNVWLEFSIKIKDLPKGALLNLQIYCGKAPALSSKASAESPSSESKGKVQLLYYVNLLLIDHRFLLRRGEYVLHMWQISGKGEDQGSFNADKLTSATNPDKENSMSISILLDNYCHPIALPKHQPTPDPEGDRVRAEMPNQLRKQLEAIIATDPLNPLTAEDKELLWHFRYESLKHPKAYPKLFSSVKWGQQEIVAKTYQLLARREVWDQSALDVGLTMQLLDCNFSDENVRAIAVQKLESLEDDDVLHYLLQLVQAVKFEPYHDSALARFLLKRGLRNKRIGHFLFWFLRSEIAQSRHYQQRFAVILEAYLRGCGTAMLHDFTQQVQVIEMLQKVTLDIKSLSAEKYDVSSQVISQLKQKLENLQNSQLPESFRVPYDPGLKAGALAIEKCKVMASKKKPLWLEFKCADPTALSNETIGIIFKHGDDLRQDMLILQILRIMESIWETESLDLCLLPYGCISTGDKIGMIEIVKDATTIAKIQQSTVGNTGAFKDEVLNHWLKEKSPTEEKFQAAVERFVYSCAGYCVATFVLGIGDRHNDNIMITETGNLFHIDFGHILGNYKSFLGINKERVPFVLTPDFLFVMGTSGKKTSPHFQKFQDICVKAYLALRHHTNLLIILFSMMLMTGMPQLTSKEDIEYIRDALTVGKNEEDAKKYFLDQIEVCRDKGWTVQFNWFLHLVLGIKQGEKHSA
smiles,measurement,setting,value
COc1cc(N2CCc3nc(NC(=O)Nc4ccccc4C(=O)NC(C)C)sc3C2)ccn1 [Compound I-52],MBI,CYP3A4,"(−) (When 3 μmol/L or less, the compound is shown as (−))"
same,"BA (Rat, 1 mg/kg, Methylcellulose suspension Oral Administration)",[1],40.9%
COc1cc(N2CCc3nc(NC(=O)Nc4ccccc4C(=O)NC(C)C(O)C(F)(F)F)sc3C2)nc(OC)n1 (stereo not drawn) [Compound I-138],inhibition at 10 µM,PI3Kγ,≥ 95%
same,inhibition at 1 µM,AKT phosphorylation,≥ 95%
same,hLMS_ox(at 0.5 μM) %,[2],82.6%
same,hERG(at 1 μM) % Inhibition,[3],2.8%
